In PMC4979471 (Cell Death Discovery, 2015):
Where two headings read alike, the source gives them in different places.

Tests used:
Experiment in all cases: Kinase selectivity, P33-radiolabeled assay
Format in all cases: biochemical
Conditions in all cases: 10 μM ATP
AKT3 = target: T1, AKT3 (Homo sapiens, UniProt Q9Y243)
T1 construct: purchased Reaction Biology Corp
In short: (§1)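 Values show % enzyme activity normalised to DMSO vehicle. They come from one 10 μM compound concentration run twice, at an ATP level of 10 μM.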

EPHA1 = target: T2, EPHA1 (Homo sapiens, UniProt P21709)
T2 construct: purchased Reaction Biology Corp
T2 sequence (P21709 26-976): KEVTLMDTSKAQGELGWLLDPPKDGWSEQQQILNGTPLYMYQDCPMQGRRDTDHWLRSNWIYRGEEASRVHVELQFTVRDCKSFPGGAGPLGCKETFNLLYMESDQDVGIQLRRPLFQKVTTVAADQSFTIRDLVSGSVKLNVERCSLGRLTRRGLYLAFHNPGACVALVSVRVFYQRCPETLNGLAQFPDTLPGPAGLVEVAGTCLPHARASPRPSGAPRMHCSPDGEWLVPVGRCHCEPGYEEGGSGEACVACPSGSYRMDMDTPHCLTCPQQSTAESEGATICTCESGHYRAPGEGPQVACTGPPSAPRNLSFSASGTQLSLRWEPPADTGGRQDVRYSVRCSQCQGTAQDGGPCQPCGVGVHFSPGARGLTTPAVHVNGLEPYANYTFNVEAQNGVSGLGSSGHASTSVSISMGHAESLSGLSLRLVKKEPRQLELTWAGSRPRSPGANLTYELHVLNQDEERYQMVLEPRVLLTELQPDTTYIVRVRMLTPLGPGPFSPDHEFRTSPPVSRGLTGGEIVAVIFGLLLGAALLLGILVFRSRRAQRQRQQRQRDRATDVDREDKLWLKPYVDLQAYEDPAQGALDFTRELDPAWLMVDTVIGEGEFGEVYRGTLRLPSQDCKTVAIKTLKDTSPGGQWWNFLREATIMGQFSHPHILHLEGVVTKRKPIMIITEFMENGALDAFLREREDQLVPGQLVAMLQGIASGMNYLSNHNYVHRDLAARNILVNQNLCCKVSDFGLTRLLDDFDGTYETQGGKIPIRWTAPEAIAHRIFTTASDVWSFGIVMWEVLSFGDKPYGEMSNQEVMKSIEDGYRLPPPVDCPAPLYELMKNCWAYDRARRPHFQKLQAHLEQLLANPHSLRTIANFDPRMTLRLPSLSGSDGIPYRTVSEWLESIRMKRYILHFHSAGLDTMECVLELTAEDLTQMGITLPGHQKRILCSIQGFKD
In short: as §1

FES/FPS = target: T3, FES/FPS (Homo sapiens, UniProt P07332)
T3 construct: purchased Reaction Biology Corp
In short: as §1

GRK1 = target: T4, GRK1 (Homo sapiens, UniProt Q15835)
T4 construct: purchased Reaction Biology Corp
T4 sequence (Q15835 1-563): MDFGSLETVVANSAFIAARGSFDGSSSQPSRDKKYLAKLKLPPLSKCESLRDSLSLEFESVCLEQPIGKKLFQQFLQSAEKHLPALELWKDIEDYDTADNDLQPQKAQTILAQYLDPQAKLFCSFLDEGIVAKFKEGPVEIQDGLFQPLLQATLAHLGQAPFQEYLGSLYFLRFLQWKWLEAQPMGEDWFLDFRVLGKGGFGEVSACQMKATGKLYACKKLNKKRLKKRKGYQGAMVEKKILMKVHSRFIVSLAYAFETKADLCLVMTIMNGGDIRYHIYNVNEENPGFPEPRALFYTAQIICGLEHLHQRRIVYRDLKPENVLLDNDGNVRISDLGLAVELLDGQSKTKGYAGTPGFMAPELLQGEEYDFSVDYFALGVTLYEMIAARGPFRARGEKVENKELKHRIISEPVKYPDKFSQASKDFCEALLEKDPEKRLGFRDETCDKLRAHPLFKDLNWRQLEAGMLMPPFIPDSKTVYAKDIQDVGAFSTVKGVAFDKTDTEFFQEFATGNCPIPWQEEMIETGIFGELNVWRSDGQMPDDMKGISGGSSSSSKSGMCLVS
In short: as §1

Haspin = target: T5, Haspin (Homo sapiens, UniProt Q8TF76)
T5 construct: purchased Reaction Biology Corp
T5 sequence (Q8TF76 1-798): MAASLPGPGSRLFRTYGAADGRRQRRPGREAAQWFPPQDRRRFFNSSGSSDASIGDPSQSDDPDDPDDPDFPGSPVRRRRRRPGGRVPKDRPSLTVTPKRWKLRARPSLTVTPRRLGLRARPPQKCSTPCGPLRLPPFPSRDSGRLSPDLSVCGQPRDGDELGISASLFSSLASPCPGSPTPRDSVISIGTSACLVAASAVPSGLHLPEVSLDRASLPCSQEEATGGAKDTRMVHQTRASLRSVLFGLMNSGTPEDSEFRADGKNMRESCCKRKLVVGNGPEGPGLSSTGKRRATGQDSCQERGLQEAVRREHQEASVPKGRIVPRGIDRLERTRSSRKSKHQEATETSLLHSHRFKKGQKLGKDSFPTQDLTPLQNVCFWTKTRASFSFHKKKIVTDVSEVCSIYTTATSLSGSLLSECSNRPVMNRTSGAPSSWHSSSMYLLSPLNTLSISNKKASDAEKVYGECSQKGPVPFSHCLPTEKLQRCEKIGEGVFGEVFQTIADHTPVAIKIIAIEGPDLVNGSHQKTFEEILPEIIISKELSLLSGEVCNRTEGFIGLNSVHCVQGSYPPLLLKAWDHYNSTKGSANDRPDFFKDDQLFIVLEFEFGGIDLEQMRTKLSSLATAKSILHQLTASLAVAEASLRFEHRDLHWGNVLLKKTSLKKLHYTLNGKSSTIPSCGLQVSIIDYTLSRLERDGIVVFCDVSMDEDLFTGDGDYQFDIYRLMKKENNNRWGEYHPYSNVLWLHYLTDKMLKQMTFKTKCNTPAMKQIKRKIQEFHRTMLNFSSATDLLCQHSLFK
In short: as §1

MLCK/MYLK = target: T6, MLCK/MYLK (Homo sapiens, UniProt Q15746)
T6 construct: purchased Reaction Biology Corp
In short: as §1

STK38/NDR1 = target: T7, STK38/NDR1 (Homo sapiens, UniProt Q15208)
T7 construct: purchased Reaction Biology Corp
In short: as §1

SYK = target: T8, SYK (Homo sapiens, UniProt P43405)
T8 construct: purchased Reaction Biology Corp
In short: as §1

[1] = read-out: % Enzyme Activity (relative to DMSO controls) AVG
[2] = read-out: % Enzyme Activity (relative to DMSO controls) Data 1
[3] = read-out: % Enzyme Activity (relative to DMSO controls) Data 2

T7 sequence (Q15208 whole entry): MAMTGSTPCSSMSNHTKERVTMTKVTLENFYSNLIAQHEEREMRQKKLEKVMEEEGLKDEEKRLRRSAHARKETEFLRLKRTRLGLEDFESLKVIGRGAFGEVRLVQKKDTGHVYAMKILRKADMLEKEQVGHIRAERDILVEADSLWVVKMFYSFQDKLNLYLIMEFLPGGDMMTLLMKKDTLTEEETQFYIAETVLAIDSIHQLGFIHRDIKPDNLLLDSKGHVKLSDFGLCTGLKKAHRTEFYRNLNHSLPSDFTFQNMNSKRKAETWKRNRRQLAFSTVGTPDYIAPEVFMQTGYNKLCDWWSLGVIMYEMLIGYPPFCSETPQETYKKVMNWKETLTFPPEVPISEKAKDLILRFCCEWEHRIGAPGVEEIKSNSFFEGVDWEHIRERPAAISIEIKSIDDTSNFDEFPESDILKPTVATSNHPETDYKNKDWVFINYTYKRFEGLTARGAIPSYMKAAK
T3 sequence (P07332 whole entry): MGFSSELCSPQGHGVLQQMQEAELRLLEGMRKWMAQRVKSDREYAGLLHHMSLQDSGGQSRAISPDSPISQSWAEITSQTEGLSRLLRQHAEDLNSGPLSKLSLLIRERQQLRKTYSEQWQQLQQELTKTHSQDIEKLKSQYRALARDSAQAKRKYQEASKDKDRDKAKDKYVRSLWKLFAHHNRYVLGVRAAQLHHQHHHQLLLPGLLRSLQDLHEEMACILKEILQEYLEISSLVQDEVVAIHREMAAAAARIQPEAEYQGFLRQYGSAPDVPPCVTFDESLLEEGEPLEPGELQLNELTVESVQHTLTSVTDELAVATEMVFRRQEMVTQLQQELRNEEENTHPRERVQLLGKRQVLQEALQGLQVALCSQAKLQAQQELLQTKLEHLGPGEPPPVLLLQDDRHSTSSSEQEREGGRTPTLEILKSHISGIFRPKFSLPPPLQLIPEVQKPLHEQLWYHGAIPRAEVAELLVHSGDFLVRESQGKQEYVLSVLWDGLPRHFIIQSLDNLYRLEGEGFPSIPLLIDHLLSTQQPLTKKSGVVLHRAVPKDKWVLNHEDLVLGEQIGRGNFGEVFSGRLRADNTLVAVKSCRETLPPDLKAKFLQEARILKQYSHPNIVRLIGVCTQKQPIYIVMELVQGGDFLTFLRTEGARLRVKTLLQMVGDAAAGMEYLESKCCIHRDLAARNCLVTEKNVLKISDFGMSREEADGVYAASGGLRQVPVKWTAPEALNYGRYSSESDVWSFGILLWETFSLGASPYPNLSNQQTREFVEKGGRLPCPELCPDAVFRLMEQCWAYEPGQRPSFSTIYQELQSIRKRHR
T1 sequence (Q9Y243 whole entry): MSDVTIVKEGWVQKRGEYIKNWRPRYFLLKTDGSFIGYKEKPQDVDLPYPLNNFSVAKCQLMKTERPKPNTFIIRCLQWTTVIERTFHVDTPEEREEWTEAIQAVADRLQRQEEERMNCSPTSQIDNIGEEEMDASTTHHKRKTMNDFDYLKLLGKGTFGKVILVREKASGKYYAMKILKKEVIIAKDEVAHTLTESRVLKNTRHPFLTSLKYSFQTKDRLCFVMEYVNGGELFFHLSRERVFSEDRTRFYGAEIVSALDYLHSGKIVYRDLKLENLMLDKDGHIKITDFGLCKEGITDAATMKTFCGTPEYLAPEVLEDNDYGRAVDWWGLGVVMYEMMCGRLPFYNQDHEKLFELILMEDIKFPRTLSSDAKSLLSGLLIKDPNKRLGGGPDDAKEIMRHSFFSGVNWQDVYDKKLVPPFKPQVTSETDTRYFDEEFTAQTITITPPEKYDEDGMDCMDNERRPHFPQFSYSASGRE

`CC(C)(C)C(=O)N1N=CC[C@H]1c1ccccc1` [GSK′963] showed a remaining activity at 10 µM (AKT3; [1]) of 102%, a remaining activity at 10 µM (AKT3; [2]) of 100% and a remaining activity at 10 µM (AKT3; [3]) of 103%. For the same compound, the remaining activity at 10 µM (EPHA1; [1]) was 106%, the remaining activity at 10 µM (EPHA1; [2]) was 107% and the remaining activity at 10 µM (EPHA1; [3]) was 106%. The remaining activity at 10 µM (FES/FPS; [1]) was 91.3%, the remaining activity at 10 µM (FES/FPS; [2]) was 93.2% and the remaining activity at 10 µM (FES/FPS; [3]) was 89.5%. For the same compound, the remaining activity at 10 µM (GRK1; [1]) was 108%, the remaining activity at 10 µM (GRK1; [2]) was 109% and the remaining activity at 10 µM (GRK1; [3]) was 106%. The remaining activity at 10 µM (Haspin; [1]) was 96.7%, the remaining activity at 10 µM (Haspin; [2]) was 97.3% and the remaining activity at 10 µM (Haspin; [3]) was 96.2%. For the same compound, the remaining activity at 10 µM (MLCK/MYLK; [1]) was 96.1%, the remaining activity at 10 µM (MLCK/MYLK; [2]) was 97.1% and the remaining activity at 10 µM (MLCK/MYLK; [3]) was 95.2%. For the same compound, the remaining activity at 10 µM (STK38/NDR1; [1]) was 102%, the remaining activity at 10 µM (STK38/NDR1; [2]) was 100% and the remaining activity at 10 µM (STK38/NDR1; [3]) was 104%. It also gave a remaining activity at 10 µM (SYK; [1]) of 102%, a remaining activity at 10 µM (SYK; [2]) of 106% and a remaining activity at 10 µM (SYK; [3]) of 97.6%.
